Data as given in patent publication US20040156869A1, “2-substituted quinazolin-4-ylamine analogues” (Neurogen Corporation, priority 2002, published 2004).

biological target: human capsaicin receptor (VR1) (Homo sapiens, UniProt Q8NER1); assay: Capsaicin receptor binding assay ([3H]RTX competition, VR1-transfected HEK293 membranes)
Sequence (Q8NER1 whole entry): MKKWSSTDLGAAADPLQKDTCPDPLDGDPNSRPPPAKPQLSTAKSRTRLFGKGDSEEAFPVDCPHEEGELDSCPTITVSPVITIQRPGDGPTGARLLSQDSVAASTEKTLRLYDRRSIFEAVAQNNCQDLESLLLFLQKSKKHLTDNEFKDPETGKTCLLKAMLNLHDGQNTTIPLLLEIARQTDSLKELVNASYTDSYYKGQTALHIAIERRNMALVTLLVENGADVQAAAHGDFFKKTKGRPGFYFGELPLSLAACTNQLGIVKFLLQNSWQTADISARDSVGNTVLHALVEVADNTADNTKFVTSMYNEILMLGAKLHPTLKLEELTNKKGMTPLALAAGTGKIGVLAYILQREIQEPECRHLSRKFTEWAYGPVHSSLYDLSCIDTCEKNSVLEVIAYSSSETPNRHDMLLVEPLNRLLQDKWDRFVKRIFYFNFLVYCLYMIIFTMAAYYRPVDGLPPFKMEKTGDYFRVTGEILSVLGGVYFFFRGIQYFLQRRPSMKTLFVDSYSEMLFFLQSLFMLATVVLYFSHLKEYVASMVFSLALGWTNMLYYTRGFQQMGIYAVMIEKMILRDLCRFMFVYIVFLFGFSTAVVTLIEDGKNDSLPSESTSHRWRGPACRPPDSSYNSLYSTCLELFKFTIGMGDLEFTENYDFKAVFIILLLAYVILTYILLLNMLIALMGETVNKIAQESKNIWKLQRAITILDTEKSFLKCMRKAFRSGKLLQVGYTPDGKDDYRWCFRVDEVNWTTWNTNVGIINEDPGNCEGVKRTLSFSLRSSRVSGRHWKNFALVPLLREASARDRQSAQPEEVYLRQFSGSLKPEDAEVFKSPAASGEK

Ki, < 1000 nM:
C[C@@H]1CN(Cc2nc(Nc3ccc(C(F)(F)F)nc3)c3ccc(-c4ncccc4Cl)cc3n2)C[C@@H](C)O1 [Compound 610, (R,R)-[7-(3-Chloro-pyridin-2-yl)-2-(2,6-dimethyl-morpholin-4-ylmethyl)-quinazolin-4-yl]-(6-trifluoromethyl-pyridin-3-yl)-amine]
C[C@@H]1CN(Cc2nc(Nc3ccc(C(C)(C)C)nc3)c3ccc(-c4ncccc4C(F)(F)F)cc3n2)C[C@@H](C)O1 [Compound 611, (R,R)-(6-tert-Butyl-pyridin-3-yl)-[2-(2,6-dimethyl-morpholin-4-ylmethyl)-7-(3-trifluoromethyl-pyridin-2-yl)-quinazolin-4-yl]-amine]
C[C@@H]1CN(Cc2nc(Nc3ccc(C(F)(F)F)cc3)c3cnc(-c4ccccc4C(F)(F)F)cc3n2)C[C@H](C)O1 [Compound 612, [2-(2,6-Dimethyl-morpholin-4-ylmethyl)-7-(2-trifluoromethyl-phenyl)-pyrido[4,3-d]pyrimidin-4-yl]-(4-trifluoromethyl-phenyl)-amine (cis)]
CC(C)c1ccc(Nc2nc(CN3C[C@@H](C)O[C@@H](C)C3)nc3cc(-c4ncccc4C(F)(F)F)cnc23)cc1 [Compound 613, [2-(2,6-Dimethyl-morpholin-4-ylmethyl)-7-(3-trifluoromethyl-pyridin-2-yl)-pyrido[3,2-d]pyrimidin-4-yl]-(4-isopropyl-phenyl)-amine (cis)]
C[C@@H]1CN(Cc2nc(Nc3ccc(C(C)(C)C)cc3)c3cnc(-c4ccccc4C(F)(F)F)cc3n2)C[C@H](C)O1 [Compound 614, (4-tert-Butyl-phenyl)-[2-(2,6-dimethyl-morpholin-4-ylmethyl)-7-(2-trifluoromethyl-phenyl)-pyrido[4,3-d]pyrimidin-4-yl]-amine (cis)]
C[C@@H]1CN(Cc2nc(Nc3ccc(C(F)(F)F)cc3)c3ncc(-c4ncccc4Cl)cc3n2)C[C@H](C)O1 [Compound 615, [7-(3-Chloro-pyridin-2-yl)-2-(2,6-dimethyl-morpholin-4-ylmethyl)-pyrido[3,2-d]pyrimidin-4-yl]-(4-trifluoromethyl-phenyl)-amine (cis)]
C[C@@H]1CN(Cc2nc(Nc3ccc(C(F)(F)F)nc3)c3ncc(-c4ncccc4Cl)cc3n2)C[C@H](C)O1 [Compound 616, [7-(3-Chloro-pyridin-2-yl)-2-(2,6-dimethyl-morpholin-4-ylmethyl)-pyrido[3,2-d]pyrimidin-4-yl]-(6-trifluoromethyl-pyridin-3-yl)-amine (cis)]
C[C@@H]1CN(Cc2nc(Nc3ccc(S(=O)(=O)C(F)(F)F)cc3)c3ncc(-c4ncccc4Cl)cc3n2)C[C@H](C)O1 [Compound 617, [7-(3-Chloro-pyridin-2-yl)-2-(2,6-dimethyl-morpholin-4-ylmethyl)-pyrido[3,2-d]pyrimidin-4-yl]-(4-trifluoromethanesulfonyl-phenyl)-amine (cis)]
Cc1cccnc1-c1ccc2c(Nc3ccc(C(F)(F)F)cc3)nc(CN3C[C@@H](C)O[C@@H](C)C3)nc2c1 [Compound 618, [2-(2,6-Dimethyl-morpholin-4-ylmethyl)-7-(3-methyl-pyridin-2-yl)-quinazolin-4-yl]-(4-trifluoromethyl-phenyl)-amine (cis)]
C[C@@H]1CN(Cc2nc(Nc3ccc(C(F)(F)F)cc3)c3ccc(-c4ccccn4)cc3n2)C[C@H](C)O1 [Compound 619, [2-(2,6-Dimethyl-morpholin-4-ylmethyl)-7-pyridin-2-yl-quinazolin-4-yl]-(4-trifluoromethyl-phenyl)-amine (cis)]
C[C@@H]1CN(Cc2nc(Nc3ccc(C(F)(F)F)cc3)c3ccc(-c4ccccc4C(F)(F)F)cc3n2)C[C@H](C)O1 [Compound 620, [2-(2,6-Dimethyl-morpholin-4-ylmethyl)-7-(2-trifluoromethyl-phenyl)-quinazolin-4-yl]-(4-trifluoromethyl-phenyl)-amine (cis)]
